The text below walks through data of paper PMC2873402, “Discovery of High-Affinity Protein Binding Ligands – Backwards” (PLoS ONE, 2010).

Holding throughout (format): binding
The subject of one assay is AKT2. Briefly: IP of AKT isoforms spiked into A549 lysate: AKT2. The following applies: 250 ng of each isoform in 500 µg A549 lysate, Western Blot. As for the experimental part: (§1) This apparent specificity was investigated further by performing an IP using 250 ng of each isoform of AKT spiked into 500 µg of A-549 cell lysate.
(§2) For all IP experiments, either a 1 µM or 250 nM solution of biotin-conjugated synbody was captured on 20 µL of streptavidin coated paramagnetic M-280 Dynabeads (Life Technologies) according to the manufacturers protocol. Synbody coated beads were washed five times with 1 mL of 100 mM phosphate buffered saline containing 0.05% Tween-20 (PBST) and incubated overnight at 4°C with shaking in the desired amount of target protein in A549 cell lysate. For Kd determination experiments, serial dilutions of AKT1 or ABL1 were prepared in binding buffer. After binding, beads were washed five times with 1 mL of PBST and heated at 70°C in 20 µL of 1× LDS loading buffer (Invitrogen) for 10 minutes. The samples were analyzed by SDS-PAGE gel with Western Blot detection using the appropriate antibody and imaged on a GE Healthcare Typhoon Trio.
(Immunoblotting shows a protein as a band on a membrane.)

Assay [1] concerns the target T1, AKT1 (Homo sapiens, UniProt P31749). Nature of the assay: IP of AKT isoforms spiked into A549 lysate: AKT1. Details: purchased Life Technologies. The following applies: 250 ng of each isoform in 500 µg A549 lysate, Western Blot. The protocol:
as §1, §2

The target in assay [2] is T1, AKT1. Briefly: IP of 35S-labeled AKT1, scintillation counting. Also noted: N-terminal vector leader of pEXP5-NT (6xHis + TEV site by own knowledge of the vector); made in house; host or cells: Expressway Mini Cell-Free Expression System (in vitro translation). The settings on record: AKT1 approximately 3% of total protein. As for the experimental part:
In order to validate the Kd determined by SPR, an additional IP was performed using ^35S-labeled AKT1 produced by in vitro translation (IVT). The translation mixture contained 12 µg of AKT1 in the presence of 400 µg of total protein and a concentration series of ^35S-labeled AKT1 from 41.5 nM to 80 pM was prepared by dilution of the 35-S-labeled AKT1 IVT mixture. The synbody was then used to precipitate the ^35S-labeled AKT1 in the same manner as before. Bound AKT1 was quantified using liquid scintillation counting and plotted as a function of AKT1 concentration.
AKT1 DNA was assembled by ligation of 42-bp oligonucleotides by PCR according to a procedure developed internally (Borovkov, et al. submitted). The PCR product was cloned into pEXP5-NT topo expression vector (Life Technologies), purified using a Qaigen PCR purification kit, and quantified by Nanodrop spectrophotometer (Thermo Scientific). […]
For all IP experiments, either a 1 µM or 250 nM solution of biotin-conjugated synbody was captured on 20 µL of streptavidin coated paramagnetic M-280 Dynabeads (Life Technologies) according to the manufacturers protocol. […] The samples were analyzed by SDS-PAGE gel with Western Blot detection using the appropriate antibody and imaged on a GE Healthcare Typhoon Trio.

For assay [3], the system named is 8,303 recombinant human proteins. Briefly: Protein array (ProtoArray) screen of synbodies. The settings on record: 200 nM biotin synbody, Alexa-555 streptavidin detection, background-subtracted fluorescence. From the text: To test this approach, a candidate synbody was constructed using two peptides, […] and […], referred to as peptides 1 and 2, respectively. The sequences of the first 17 aa of these peptides were generated using a random number generator and three constant positions on the C-terminus that served as a spacer between the linker scaffold and the active portion of each peptide. A divergent synthetic method was used in which peptide 1 was synthesized from C to N terminus from the α-amine of lysine and peptide 2 was synthesized from the ε-amine of lysine (Figure 2A, Materials and Methods S1, Figure S1). The synbody was tagged on the C-terminus with biotin and screened against a Life Technologies ProtoArray™. ProtoArrays are nitrocellulose coated slides onto which 8,303 recombinant human proteins have been spotted. After a 2-hour incubation, the array was washed and bound synbody was detected using fluorescently labeled streptavidin. […]
Synbodies were screened on an Invitrogen ProtoArray™ (Life Technologies, Carlsbad, CA, USA) detected with Alexa-555 labeled streptavidin (Life Technologies), and scanned using a Perkin Elmer ProScan Array HTP. The spots were analyzed using GenePix Pro (Molecular Devices, Sunnyvale, CA, USA) and data were processed using Genespring GX (Agilent Technologies, Santa Clara, CA, USA). […]

Assay [4] addresses T1, AKT1. Nature of the assay: IP of AKT1 from solution, Western Blot. Also noted: purchased Life Technologies. The settings on record: synbody with C-terminal Lys-Biotin on streptavidin magnetic beads, 89 nM to 0.7 nM AKT1, overnight, 4°C. The protocol:
The synbody was tested for its ability to bind native protein in solution. A variant of the synbody was prepared in which the C-terminal Cys was replaced with a Lys-Biotin. The synbody was used in an immunoprecipitation (IP) experiment in which it was bound to streptavidin magnetic beads and incubated overnight with 89 nM to 0.7 nM solutions of AKT1. The beads were washed extensively and the bound protein was eluted. Samples were run on a SDS-PAGE gel and detected by Western Blot with an anti-AKT1 monoclonal antibody (Figure 3B).
as §2

“Also recorded” adds a separate entry of the source. Bridge positions count the residues as written; N and C are the ends. Ends that are not written are not given here. I, II: the chains in the order shown. * marks the point of attachment. StBu = CC(C)(C)S*

T1 sequence (P31749 whole entry, canonical isoform): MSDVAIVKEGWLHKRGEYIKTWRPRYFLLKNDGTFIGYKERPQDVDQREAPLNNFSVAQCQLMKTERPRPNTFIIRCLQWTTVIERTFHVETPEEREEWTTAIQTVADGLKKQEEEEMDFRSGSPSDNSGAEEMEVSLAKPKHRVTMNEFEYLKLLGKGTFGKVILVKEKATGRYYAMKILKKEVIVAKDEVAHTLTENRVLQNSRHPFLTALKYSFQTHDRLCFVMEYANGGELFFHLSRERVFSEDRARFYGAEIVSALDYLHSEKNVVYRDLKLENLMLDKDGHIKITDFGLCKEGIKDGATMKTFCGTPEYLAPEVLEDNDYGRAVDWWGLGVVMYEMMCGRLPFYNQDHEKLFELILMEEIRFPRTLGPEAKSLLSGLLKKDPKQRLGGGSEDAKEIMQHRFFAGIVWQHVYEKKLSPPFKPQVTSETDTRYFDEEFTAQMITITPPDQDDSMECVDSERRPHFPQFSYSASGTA

“I: AHKVVPQRQIRHAYNRYGSGKC(StBu)-NH2 / II: FRGWAHIFFGPHVIYRGGSG (amide I:21-II:C) [synbody]”: in the assay on AKT2, the “IP of AKT2 (isoform selectivity)” value is given as “relatively little”. Further, the “IP of AKT1 (isoform selectivity)” value at AKT1 [1] is “selectively precipitates AKT1”. The “specificity for AKT1 in IVT lysate” value on AKT1 [2] is “specifically binds AKT1 from a complex background”. In addition, the “proteins bound on protein array” value in assay [3] is “bound few proteins on the array; also recorded: bound several different proteins including PCCA, CASZ1, GRP58, NOB1, and AKT1”. In addition, the “IP of AKT1 from solution” value on AKT1 [4] is reported as “bound AKT1 from solution”.
